Reference: PMC5575539 (Journal of Clinical Pharmacology, 2017)
Where two headings read alike, the source gives them in different places.

How the values were obtained:
[1] = Population pharmacokinetic analysis of lenvatinib; type: in vivo, human; conditions: for Additional (ng/mL) (TAD ≤ 2 hours) / Proportional (%CV) (Clinical pharmacology studies) / Proportional (%CV) (Patient studies) / Proportional (%CV) (TAD ≤ 2 hours): residual error
[2] = system: subjects with HCC Child‐Pugh class A; conditions: 12 mg QD; independent radiologic review per modified RECIST; cited from earlier work
[3] = type: in vivo, human; conditions: ROC curve; TEAEs during cycle 1; subjects with HCC
[4] = 4‐week cycles, continuous schedule; subjects with Child‐Pugh class A; cited from earlier work
[5] = type: in vivo, human; conditions: for AUC: human, plasma, oral, 12 mg, Median AUC based on the starting dose, steady state, model‐derived
[6] = final model, bootstrap median (2.5‐97.5 percentile)
[7] = final model, population mean (%RSE)
[8] = base model, population mean (%RSE)

COc1cc2nccc(Oc3ccc(NC(=O)NC4CC4)c(Cl)c3)c2cc1C(N)=O [lenvatinib]
Ka ([1]; base model, population mean (%RSE), absorption rate): 1.02 (6.06) L/h | D1 ([1]; base model, population mean (%RSE), duration of 0‐order absorption): 1.05 (5.45) hours | F1 (capsule vs tablet formulation) ([1]; base model, population mean (%RSE), relative bioavailability): 0.832 (0.982) | Effect of the HCC population (HCC vs other cancer type) on CL/F ([1]; covariate analysis, model including body weight and alkaline phosphatase effects): not a statistically significant effect | CL/F interindividual variability explained by body weight ([1]; final PK model): 10.5% | CL/F interindividual variability explained by other covariates ([1]; final PK model): 14.3% | Decrease of CL/F with CYP3A4 inhibitors ([1]; final PK model): 7.8% | Decrease of CL/F with alkaline phosphatase above the upper limit of normal ([1]; final PK model): 14.8% | Higher CL/F in healthy subjects than in patients with cancer ([1]; final PK model): 19% | Increase of CL/F with concomitant administration of CYP3A4 inducers ([1]; final PK model): 30% | Decrease of CL/F with alkaline phosphatase above the upper limit of normal ([1]; final PK model, listed as Lenvatinib): 15% | ALP (> ULN vs ≤ ULN) on CL/F [ΘALP] [1, 6]: 0.855 (0.807‐0.910) | Body weight on V1/F, V2/F, and V3/F [ΘWGT2] [1, 6]: 1.08 (0.876‐1.28) | D1 [1, 6]: 1.06 (0.987‐1.14) hours | F1 (capsule vs tablet formulation) [1, 6]: 0.867 (0.815‐0.908) | Ka [1, 6]: 1.04 (0.933‐1.13) L/h | Population (healthy vs subjects) on CL/F [ΘTM] [1, 6]: 1.19 (1.11‐1.27) | ALP (> ULN vs ≤ ULN) on CL/F [ΘALP] [1, 7]: 0.852 (1.24) | Population (healthy vs subjects) on CL/F [ΘTM] [1, 7]: 1.19 (3.26) | Ka ([1]; final model, population mean (%RSE), absorption rate): 1.04 (6.80) L/h | D1 ([1]; final model, population mean (%RSE), duration of 0‐order absorption): 1.06 (5.77) hours | Body weight on V1/F, V2/F, and V3/F [ΘWGT2] ([1]; final model, population mean (%RSE), power exponent on WGT/75): 1.08 (5.42) | F1 (capsule vs tablet formulation) ([1]; final model, population mean (%RSE), relative bioavailability): 0.867 (1.00) | Differences in CL/F between HCC Child‐Pugh class A and B groups ([1]; population PK analysis): No differences in CL/F | Additional (ng/mL) (TAD ≤ 2 hours) [1, 8]: 7.29 (16.2) ng/mL | Proportional (%CV) (Clinical pharmacology studies) [1, 8]: 18.4 (0.888) %CV | Proportional (%CV) (Patient studies) [1, 8]: 30.7 (2.03) %CV | Proportional (%CV) (TAD ≤ 2 hours) [1, 8]: 44.9 (3.75) %CV | Additional (ng/mL) (TAD ≤ 2 hours) [1, 6]: 7.50 (4.62‐9.85) ng/mL | Proportional (%CV) (Clinical pharmacology studies) [1, 6]: 17.1 (15.5‐18.8) %CV | Proportional (%CV) (Patient studies) [1, 6]: 30.1 (27.7‐32.2) %CV | Proportional (%CV) (TAD ≤ 2 hours) [1, 6]: 44.8 (40.7‐48.8) %CV | Additional (ng/mL) (TAD ≤ 2 hours) [1, 7]: 7.35 (16.3) ng/mL | Proportional (%CV) (Clinical pharmacology studies) [1, 7]: 17.3 (0.883) %CV | Proportional (%CV) (Patient studies) [1, 7]: 30.2 (2.00) %CV | Proportional (%CV) (TAD ≤ 2 hours) [1, 7]: 44.8 (3.87) %CV | Median time to progression [2]: 7.4 months | Objective response rate [2]: 37% | Best cutoff value of lenvatinib AUC to predict high‐risk group for early drug withdrawal or dose reduction [3]: 2430 ng·h/mL | Maximum tolerated dose [4]: 12 mg QD | Subjects who experienced TEAEs leading to dose reduction or discontinuation during cycle 1 ([5]; 21 of 45 subjects in the exposure–response population, 12 mg QD, HCC): 46.7% | Relationship between lenvatinib exposure and response (time to progression) ([5]; Kaplan‐Meier, tertiles of AUC based on starting dose of 12 mg, independent reviewer assessments): No relationship | AUC ([5]; subjects with early dose withdrawal or reduction): 2950 ng·h/mL | AUC ([5]; subjects without early dose modification): 2050 ng·h/mL
